Assay [1] deals with T1, human ANO6 (Homo sapiens, UniProt Q4KMQ2).
T1 construct: expressed in transfected cells
T1 sequence (Q4KMQ2 1-931 isoform Q4KMQ2-2): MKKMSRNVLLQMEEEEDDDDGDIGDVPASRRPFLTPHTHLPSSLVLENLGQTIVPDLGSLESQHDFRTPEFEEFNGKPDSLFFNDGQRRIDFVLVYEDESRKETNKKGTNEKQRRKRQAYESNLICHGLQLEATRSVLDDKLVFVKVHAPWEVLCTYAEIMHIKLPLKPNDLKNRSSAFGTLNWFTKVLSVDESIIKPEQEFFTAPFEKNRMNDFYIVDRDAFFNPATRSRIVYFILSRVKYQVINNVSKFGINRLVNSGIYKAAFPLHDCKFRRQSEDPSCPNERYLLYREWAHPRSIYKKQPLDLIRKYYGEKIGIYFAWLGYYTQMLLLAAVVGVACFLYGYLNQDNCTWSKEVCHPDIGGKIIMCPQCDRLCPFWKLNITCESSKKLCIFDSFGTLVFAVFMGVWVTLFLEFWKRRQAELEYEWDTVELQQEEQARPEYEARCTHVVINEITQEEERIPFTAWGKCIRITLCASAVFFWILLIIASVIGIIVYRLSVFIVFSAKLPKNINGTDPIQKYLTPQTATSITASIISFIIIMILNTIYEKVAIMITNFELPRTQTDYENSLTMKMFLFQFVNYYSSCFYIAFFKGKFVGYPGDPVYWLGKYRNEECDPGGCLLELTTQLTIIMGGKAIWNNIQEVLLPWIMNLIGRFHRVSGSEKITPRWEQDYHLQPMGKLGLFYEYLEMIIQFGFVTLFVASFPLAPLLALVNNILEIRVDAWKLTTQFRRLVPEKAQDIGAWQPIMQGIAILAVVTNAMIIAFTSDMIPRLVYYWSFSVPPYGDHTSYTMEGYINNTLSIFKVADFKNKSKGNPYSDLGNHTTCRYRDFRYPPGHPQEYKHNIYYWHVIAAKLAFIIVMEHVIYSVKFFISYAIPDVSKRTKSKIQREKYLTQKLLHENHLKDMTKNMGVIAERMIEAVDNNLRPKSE
In words: YFP quenching assay (ANO6 ion channel activity). Conditions: 10 μM ionomycin; for inhibition at 30 µM: test compound 30 μM, read-out: Inhibition Level 30 μM; for inhibition at 1 µM: test compound 1 μM, read-out: Inhibition Level 1 μM. The assay is classed as cell-based. The source says:
Example 3: YFP Quenching Assay
1. Materials and Instruments
Ionomycin (Alomonelab cat. #I-700), FLUOstar Omega microplate reader (BMG Labtech, Ortenberg, Germany), and MARS Data Analysis Software (BMG Labtech)
Fisher rat thyroid (FRT) cells stably expressing human ANO6 (GenBank accession no. NP_001191732.1, provided by J. H. Nam, Dongguk University College of Medicine, Korea) and halide sensor mutant YFP-H148Q/I152L/F46L) were constructed and grown in Dulbecco's modified Eagle's medium Nutrient Mixture F-12 (DMEM/F-12) supplemented 10% FBS, 100 units/mL penicillin, 500 μg/mL hygromycin B and 100 μg/mL neomycin.
Fisher rat thyroid (FRT) cells stably expressing human ANO6 and halide sensor mutant YFP (H148Q/I152L/F46L) were seeded in black walled 96 well plates and incubated in a 37° C., 5% CO2 incubator to reach about 100% cell confluency. Then, each well of the 96 well plates were washed for several times with phosphate buffered saline (PBS), and 50 μL of PBS was added to each well. Test compounds (100× in DMSO) were added to each well to be 1% v/v DMSO. After incubation for 10 minutes in 40° C., the 96 well plates were transferred to a plate reader, and YFP fluorescence changed by SCN-introduced into cells through activated ANO6 were measured by the following steps.
(1) YFP fluorescence signals were recorded in every 0.4 seconds.
(2) Basal YFP fluorescence signals were recorded for 1 second.
(3) 140 mM SCN-(50 μL) containing 10 μM ionomycin was injected to each well, and YFP fluorescence signals were recorded.
The inhibitory activity (%) of each of the test compounds was obtained by the following steps.
(1) Background signals were subtracted from recording values, and the resulting values were converted to relative percentages. The values at 0 second were set to be 100%.
(2) Differences between the values at 3.6 seconds and those of at 7.6 seconds were calculated.
(3) In each row of 96 well plate, the inhibitory activity of each of the test compounds was calculated as percentages. The inhibitory activity of a negative control group to which neither compounds nor ionomycin were treated was set to be 100%, and the inhibitory activity of a positive control group to which ionomycin was treated and compounds were not treated was set to be 0%.
(4) The assay was performed in duplicate or triplicate, and the results were averaged.

Assay [2] addresses T1, human ANO6. In words: LACT C2 assay (phosphatidylserine scramblase function assay). The assay is classed as cell-based. Conditions: FRT cells expressing human ANO6, 10 μM ionomycin; for inhibition at 0.1 µM: test compound 100 nM, read-out: Inhibition Level 100 nM; for inhibition at 1 µM: test compound 1 μM, read-out: Inhibition Level 1 μM. The essentials:
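Inhibition was normalised between ionomycin-only (0%) and untreated (100%) wells, with triplicates averaged. Readout was background-corrected Lact-C2-GFP (500 nM) fluorescence from imaged cells. The cells were FRT cells stably expressing human ANO6, given compound at 1% DMSO for 10 min before a 10 min 10 μM ionomycin challenge.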

Some results are limits rather than exact numbers.

As usually defined, the inhibition is the relative decrease from the control value, in per cent.

As for `Cc1ccc(CNC(=O)c2cccc(Nc3cccnn3)c2)o1` [Compound 5, N-[(5-methylfuran-2-yl)methyl]-3-[(pyridazin-3-yl)amino]benzamide], in assay [1], the inhibition at 30 µM was in the range of 30 to 60%.
Turning to `Cc1ccc(CNC(=O)c2cccc(Nc3ccc(-c4ccco4)nn3)c2)o1` [Compound 8, 3-{[6-(furan-2-yl)pyridazin-3-yl]amino}-N-[(5-methylfuran-2-yl)methyl]benzamide], in assay [1], the inhibition at 1 µM was in the range of 30 to 60% and the inhibition at 30 µM is at least 60%.
With `Cc1ccc(CNC(=O)c2cccc(Nc3ccc(-c4ccncc4)nn3)c2)o1` [Compound 9, N-[(5-methylfuran-2-yl)methyl]-3-{[6-(pyridin-4-yl)pyridazin-3-yl]amino}benzamide], in assay [1], the inhibition at 1 µM was below 30% and the inhibition at 30 µM was at least 60%.
Take `CCN1CCN(c2cc(CNC(=O)c3cccc(Nc4ccc(-c5ccccc5)nn4)c3)ccc2F)CC1` [Compound 226, N-(3-(4-ethylpiperazin-1-yl)-4-fluorobenzyl)-3-((6-phenylpyridazin-3-yl)amino)benzamide]: in assay [2], the inhibition at 0.1 µM was below 30% and the inhibition at 1 µM was below 30%.
For the compound `CN1CCN(c2cc(CNC(=O)c3cccc(Nc4ccc(-c5ccccc5)nn4)c3)ccc2F)CC1` [Compound 227, N-(4-fluoro-3-(4-methylpiperazin-1-yl)benzyl)-3-((6-phenylpyridazin-3-yl)amino)benzamide], in assay [2], the inhibition at 0.1 µM is below 30% and the inhibition at 1 µM lay in the range of 30 to 60%.
In the case of `O=C(NC1(CO)CC1)c1cccc(Nc2ccc(-c3ccccc3)nn2)c1` [Compound 228, N-(1-(hydroxymethyl)cyclopropyl)-3-((6-phenylpyridazin-3-yl)amino)benzamide], in assay [2], the inhibition at 0.1 µM is below 30% and the inhibition at 1 µM is below 30%.
With `COc1cc(F)ccc1CNC(=O)c1cccc(Nc2ccc(-c3cccc(F)c3)nn2)c1` [Compound 229, N-(4-fluoro-2-methoxybenzyl)-3-((6-(3-fluorophenyl)pyridazin-3-yl)amino)benzamide], in assay [2], the inhibition at 0.1 µM is below 30% and the inhibition at 1 µM was below 30%.
Turning to `O=C(NCc1ccc(F)c(F)c1)c1cccc(Nc2ccc(-c3ccccc3)nn2)c1` [Compound 230, N-(3,4-difluorobenzyl)-3-((6-phenylpyridazin-3-yl)amino)benzamide], in assay [2], the inhibition at 0.1 µM is below 30% and the inhibition at 1 µM lay in the range of 30 to 60%.
Turning to `Cc1cc(CNC(=O)c2cccc(Nc3ccc(-c4ccccc4)nn3)c2)ccc1F` [Compound 231, N-(4-fluoro-3-methylbenzyl)-3-((6-phenylpyridazin-3-yl)amino)benzamide], in assay [2], the inhibition at 0.1 µM is below 30% and the inhibition at 1 µM is below 30%.
Take `COc1cc(CNC(=O)c2cccc(Nc3ccc(-c4ccccc4)nn3)c2)ccc1F` [Compound 232, N-(4-fluoro-3-methoxybenzyl)-3-((6-phenylpyridazin-3-yl)amino)benzamide]: in assay [2], the inhibition at 0.1 µM was below 30% and the inhibition at 1 µM is below 30%.
With `CC(NC(=O)c1cccc(Nc2ccc(-c3ccccc3)nn2)c1)c1ccc(F)cc1` (stereo not drawn) [Compound 233, N-(1-(4-fluorophenyl)ethyl)-3-((6-phenylpyridazin-3-yl)amino)benzamide], in assay [2], the inhibition at 0.1 µM is below 30% and the inhibition at 1 µM was below 30%.
As to `O=C(N[C@@H]1C[C@H]1c1ccc(F)c(F)c1)c1cccc(Nc2ccc(-c3ccccc3)nn2)c1` [Compound 234, N-((1R,2S)-2-(3,4-difluorophenyl)cyclopropyl)-3-((6-phenylpyridazin-3-yl)amino)benzamide], in assay [2], the inhibition at 0.1 µM is 30 to 60% and the inhibition at 1 µM is at least 60%.
In the same order, the values of `Cc1ccc([C@@H]2C[C@H]2NC(=O)c2cccc(Nc3ccc(-c4ccccc4)nn3)c2)cc1` [Compound 235, 3-((6-phenylpyridazin-3-yl)amino)-N-((1R,2S)-2-(p-tolyl)cyclopropyl)benzamide] are 30 to 60% and at least 60%.
The like results for `COc1ccc([C@@H]2C[C@H]2NC(=O)c2cccc(Nc3ccc(-c4ccccc4)nn3)c2)cc1` [Compound 236, N-((1R,2S)-2-(4-methoxyphenyl)cyclopropyl)-3-((6-phenylpyridazin-3-yl)amino)benzamide] were, in that order, below 30% and at least 60%.
Regarding `O=C(NCC1(O)CC1)c1cccc(Nc2ccc(-c3ccccc3)nn2)c1` [Compound 237, N-((1-hydroxycyclopropyl)methyl)-3-((6-phenylpyridazin-3-yl)amino)benzamide], in assay [2], the inhibition at 0.1 µM was below 30% and the inhibition at 1 µM was below 30%.
Regarding `O=C(Nc1cccc(F)c1)c1cccc(Nc2ncc(-c3cccc(F)c3)cn2)c1` [Compound A91], in assay [2], the inhibition at 0.1 µM is below 30% and the inhibition at 1 µM was at least 60%.
With `Cc1ccc(NC(=O)c2cccc(Nc3ncc(-c4cccc(F)c4)cn3)c2)cc1C` [Compound A92], in assay [2], the inhibition at 0.1 µM was below 30% and the inhibition at 1 µM was at least 60%.
In the case of `O=C(Nc1ccccc1)c1cccc(Nc2ncc(-c3cccc(F)c3)cn2)c1` [Compound A93], the inhibition at 0.1 µM in assay [2] was below 30%.
Take `O=C(NC1CCCCCC1)c1cccc(Nc2ncc(-c3cccc(F)c3)cn2)c1` [Compound A94]: the inhibition at 0.1 µM in assay [2] is below 30%.
Turning to `CN(CCCNC(=O)c1cccc(Nc2ccc(-c3ccccc3)nn2)c1)Cc1ccccc1` [Compound A95], in assay [2], the inhibition at 0.1 µM was below 30% and the inhibition at 1 µM is 30 to 60%.
Turning to `O=C(NCc1ccc(F)cc1)c1cccc(Nc2ncc(-c3cccc(F)c3)cn2)c1` [Compound A96], in assay [2], the inhibition at 0.1 µM is below 30% and the inhibition at 1 µM was in the range of 30 to 60%.
Turning to `Cc1ccc(CNC(=O)c2cccc(Nc3ncc(-c4cccc(F)c4)cn3)c2)cc1` [Compound A97], in assay [2], the inhibition at 0.1 µM was below 30% and the inhibition at 1 µM is below 30%.
Regarding `O=C(NCc1ccccc1Cl)c1cccc(Nc2ncc(-c3cccc(F)c3)cn2)c1` [Compound A98], in assay [2], the inhibition at 0.1 µM is below 30% and the inhibition at 1 µM fell in the range of 30 to 60%.
`Cc1ccccc1CNC(=O)c1cccc(Nc2ncc(-c3cccc(F)c3)cn2)c1` [Compound A99]: in assay [2], the inhibition at 0.1 µM is below 30% and the inhibition at 1 µM was below 30%.
For `O=C(NCc1ccc(Br)cc1)c1cccc(Nc2ncc(-c3cccc(F)c3)cn2)c1` [Compound A100], in assay [2], the inhibition at 0.1 µM is below 30% and the inhibition at 1 µM is 30 to 60%.
Regarding `O=C(NCc1ccc(Cl)cc1)c1cccc(Nc2ncc(-c3cccc(F)c3)cn2)c1` [Compound A101], in assay [2], the inhibition at 0.1 µM was below 30% and the inhibition at 1 µM was 30 to 60%.
The like results for `Cc1ccc(NC(=O)c2cccc(Nc3ncc(-c4cccc(F)c4)cn3)c2)cc1` [Compound A102] were, in that order, below 30% and at least 60%.

For the origin of these results see patent publication US20230080054A1 (ILDONG PHARMACEUTICAL CO., LTD., priority 2021, published 2023).
